The results in this text go back to patent publication US20260001914A1, “MACROCYCLIC PEPTIDES TARGETING KRAS” (Merck Sharp & Dohme LLC, priority 2022, published 2026).

Molecules are shown by their SMILES. *1 amine or outer side, *2 acyl side, *3 side chain or, on linkers, in order; H or OH if unused. Where a SMILES comes first, the peptide text is derived from it. Bridges are numbered along the chain shown (N, C = ends). [ ]: non-standard residue; d: D form. NMeNva(5-imidazol-1-yl) = CN[C@@H](CCCn1ccnc1)C(=O)O; Ala(pyrimidin-5-yl) = N[C@@H](Cc1cncnc1)C(=O)O; NMePhe(3-Me) = CN[C@@H](Cc1cccc(C)c1)C(=O)O; NMePhe(4-F) = CN[C@@H](Cc1ccc(F)cc1)C(=O)O; X20 = CN([C@@H](Cc1cnco1)C(=O)[*:2])[*:1]; X25 = O=C([C@H](Cc1ccc(F)nc1)N[*:1])[*:2]; Lys(N3) = [N-]=[N+]=NCCCC[C@H](N)C(=O)O; X11 = CC(C)(F)CC[C@H](N[*:1])C(=O)[*:2]; X15 = O=C([C@H](Cc1cnccc1F)N[*:1])[*:2]; Nle(5,5-F2) = CC(F)(F)CC[C@H](N)C(=O)O; X21 = O=C([C@@H]1C[C@H]1CN[*:1])[*:2]; X47 = O=C([C@H](Cc1ccoc1)N[*:1])[*:2]; Phe(2-F) = N[C@@H](Cc1ccccc1F)C(=O)O; NMe3Pal = CN[C@@H](Cc1cccnc1)C(=O)O; NMeY = CN[C@@H](Cc1ccc(O)cc1)C(=O)O; X1 = O=C(C12CC(CN[*:1])(C1)C2)[*:2]; NMeR = CN[C@@H](CCCNC(=N)N)C(=O)O; Ala(cPr) = N[C@@H](CC1CC1)C(=O)O; NMeF = CN[C@@H](Cc1ccccc1)C(=O)O; PhLac = O=C(O)[C@@H](O)Cc1ccccc1; 3Pal = N[C@@H](Cc1cccnc1)C(=O)O; Ahp(2) = CCCCC[C@H](N)C(=O)O; Cba = N[C@@H](CC1CCC1)C(=O)O; hLeu = CC(C)CC[C@H](N)C(=O)O; NMeAbu = CC[C@H](NC)C(=O)O; NMeS = CN[C@@H](CO)C(=O)O; αMeC = C[C@](N)(CS)C(=O)O; NMeA = CN[C@@H](C)C(=O)O; Nle = CCCC[C@H](N)C(=O)O

For this assay, the target named is phosphorylation levels of ERK1/2 in AsPC-1 (homozygous KRAS-G12D) cells (Homo sapiens, UniProt P01116, G12D). As to the kind of experiment: Cellular phospho-ERK assay in AsPC-1 cells (Alpha Screen), assay medium without fetal bovine serum.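 Note: signal taken as phospho-ERK over total ERK per well, both detected in one multiplex bead assay, EC50 from four-parameter logistic fit of dose-response curves.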 It is filed as cell-based. The following applies: phospho-ERK AlphaScreen, 18 h. (In general: In Alpha technology, singlet oxygen from a donor bead excites a nearby acceptor bead.)
Sequence of phosphorylation levels of ERK1/2 in AsPC-1 (homozygous KRAS-G12D) cells (P01116 1-186 G12D): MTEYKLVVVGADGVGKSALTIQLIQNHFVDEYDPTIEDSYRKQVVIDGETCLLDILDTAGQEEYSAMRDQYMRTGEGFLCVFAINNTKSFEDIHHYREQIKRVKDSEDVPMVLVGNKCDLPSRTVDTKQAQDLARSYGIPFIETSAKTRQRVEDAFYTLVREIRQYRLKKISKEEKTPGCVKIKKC
For orientation: EC50 means the concentration needed to bring the measured effect to its halfway point. A high value points to lower potency in that assay. In the case of `CCCCC[C@@H]1NC(=O)[C@H](Cc2ccc(OC)cc2)NC(=O)[C@H](CC2CCC2)NC(=O)[C@H](Cc2cccnc2)NC(=O)[C@H](CCCNC(=N)N)NC(=O)[C@H](Cc2ccccc2)OC(=O)C23CC(CNC(=O)[C@H](Cc4ccccc4)N(C)C1=O)(C2)C3` [compound 211, cyclo(FLac-R-3Pal-cBuA-TyrOMe-Ahp-NMeF-amBCP)] (cyclo([PhLac]R[3Pal][Cba]Y(Me)[Ahp(2)][NMeF][X1])), the EC50 is more than 50.8 µM. As for `CCCC[C@@H]1NC(=O)[C@H](Cc2cccnc2)NC(=O)[C@H](C)N(C)C(=O)[C@H](Cc2ccccc2)OC(=O)C23CC(CNC(=O)[C@H](Cc4cccnc4)N(C)C(=O)[C@H](CCC(C)C)NC(=O)[C@H](Cc4ccccc4F)NC1=O)(C2)C3` [compound 124, cyclo(FLac-NMeA-3Pal-Nle-Phe2F-hL-NMe3Pal-amBCP)] (cyclo([3Pal][Nle][Phe(2-F)][hLeu][NMe3Pal][X1][PhLac][NMeA])), the figure is 4.65 µM. `CCCC[C@@H]1NC(=O)[C@H](Cc2ccc(F)nc2)NC(=O)[C@H](C)N(C)C(=O)[C@H](Cc2ccccc2)OC(=O)C23CC(CNC(=O)[C@H](Cc4cccnc4)N(C)C(=O)[C@H](CCCC)NC(=O)[C@H](Cc4ccccc4F)NC1=O)(C2)C3` [compound 235, cyclo(FLac-NMeA-4F3Pal-Nle-Phe2F-Nle-NMe3Pal-amBCP)] (cyclo([NMe3Pal][X1][PhLac][NMeA][X25][Nle][Phe(2-F)][Nle])) returned an EC50 of 11.8 µM. As for `CCCC[C@@H]1NC(=O)[C@H](Cc2ccc(F)nc2)NC(=O)[C@H](C)N(C)C(=O)[C@H](Cc2ccccc2)OC(=O)C23CC(CNC(=O)[C@H](Cc4ccccc4)N(C)C(=O)[C@H](CCCC)NC(=O)[C@H](Cc4ccccc4F)NC1=O)(C2)C3` [compound 231, cyclo(FLac-NMeA-4F3Pal-Nle-Phe2F-Nle-NMeF-amBCP)] (cyclo([NMeA][X25][Nle][Phe(2-F)][Nle][NMeF][X1][PhLac])), the figure is 0.589 µM.

For the molecule `C[C@H]1C(=O)N[C@@H](Cc2cncnc2)C(=O)N[C@@H](CCC(C)(F)F)C(=O)N[C@@H](Cc2ccccc2F)C(=O)N[C@@H](CCC(C)(F)F)C(=O)N(C)[C@@H](Cc2ccccc2)C(=O)NCC23CC(C2)(C3)C(=O)O[C@@H](Cc2ccccc2)C(=O)N1C` [compound 288, cyclo(FLac-NMeA-PyrimAla-Nle3F2-Phe2F-Nle3F2-NMeF-amBCP)] (cyclo([NMeA][Ala(pyrimidin-5-yl)][Nle(5,5-F2)][Phe(2-F)][Nle(5,5-F2)][NMeF][X1][PhLac])), a half-maximal response (EC50) required 6.61 µM. As for `CCCCC[C@@H]1NC(=O)[C@H](Cc2ccc(OC)cc2)NC(=O)[C@H](CC2CCC2)NC(=O)[C@H](Cc2ccc(C)nc2)NC(=O)[C@H](CCCNC(=N)N)NC(=O)[C@H](Cc2ccccc2)NC(=O)CSC[C@@](C)(C(N)=O)NC(=O)[C@H](Cc2ccccc2)N(C)C1=O` [compound 364, cyclo(F-R-4Me3Pal-cBuA-TyrOMe-Ahp-NMeF-aMeCl-ClAc)], the figure is more than 50.8 µM. `CCCC[C@@H]1NC(=O)[C@H](Cc2cccnc2)NC(=O)[C@H](CCCNC(=N)N)N(C)C(=O)[C@H](Cc2ccccc2)NC(=O)[C@@H]2C[C@H]2CNC(=O)[C@H](Cc2ccccc2)N(C)C(=O)[C@H](CCCCN=[N+]=[N-])NC(=O)[C@H](Cc2ccc(OC)cc2)NC1=O` [compound 94, cyclo(F-NMeR-3Pal-Nle-TyrOMe-LysN3-NMeF-tamcPr)] (cyclo(F[NMeR][3Pal][Nle]Y(Me)[Lys(N3)][NMeF][X21])) gave an EC50 of more than 50.8 µM. As for `CCCC[C@@H]1NC(=O)[C@H](Cc2cccnc2)NC(=O)[C@H](C)N(C)C(=O)[C@H](Cc2ccccc2)NC(=O)CSC[C@@](C)(C(N)=O)NC(=O)[C@H](Cc2ccccc2)N(C)C(=O)[C@H](CCCC)NC(=O)[C@H](Cc2ccccc2F)NC1=O` [compound 159, cyclo(F-NMeA-3Pal-Nle-Phe2F-Nle-NMeF-aMeCl-ClAc)] ({CH2CO}-F[NMeA][3Pal][Nle][Phe(2-F)][Nle][NMeF][αMeC]-NH2; thioether N-8), the figure is 21 µM; as for `CCCCC[C@@H]1NC(=O)[C@H](Cc2ccc(OC)cc2)NC(=O)[C@H](CC2CCC2)NC(=O)[C@H](Cc2cccnc2)NC(=O)[C@H](C)N(C)C(=O)[C@H](Cc2ccccc2)NC(=O)CSC[C@@](C)(C(N)=O)NC(=O)[C@H](Cc2ccccc2)N(C)C1=O` [compound 158, cyclo(F-NMeA-3Pal-cBuA-TyrOMe-Ahp-NMeF-aMeCl-ClAc)] ({CH2CO}-F[NMeA][3Pal][Cba]Y(Me)[Ahp(2)][NMeF][αMeC]-NH2; thioether N-8), more than 50.8 µM.

`Cc1cccc(C[C@H]2C(=O)NCC34CC(C3)(C4)C(=O)O[C@@H](Cc3ccccc3)C(=O)N(C)[C@@H](C)C(=O)N[C@@H](Cc3cncnc3)C(=O)N[C@@H](CC3CC3)C(=O)N[C@@H](Cc3ccccc3F)C(=O)N[C@@H](CCC(C)(C)F)C(=O)N2C)c1` [compound 274, cyclo(FLac-NMeA-PyrimAla-cPrA-Phe2F-hL3F-NMePhe3Me-amBCP)] (cyclo([Ala(cPr)][Phe(2-F)][X11][NMePhe(3-Me)][X1][PhLac][NMeA][Ala(pyrimidin-5-yl)])) yielded an EC50 of 0.604 µM.

`CCCC[C@@H]1NC(=O)[C@H](Cc2cccnc2)NC(=O)[C@H](CCCn2ccnc2)N(C)C(=O)[C@H](Cc2ccccc2)OC(=O)C23CC(CNC(=O)[C@H](Cc4ccccc4)N(C)C(=O)[C@H](CCCC)NC(=O)[C@H](Cc4ccccc4F)NC1=O)(C2)C3` [compound 233, cyclo(FLac-NMeNvalmid-3Pal-Nle-Phe2F-Nle-NMeF-amBCP)] (cyclo([3Pal][Nle][Phe(2-F)][Nle][NMeF][X1][PhLac][NMeNva(5-imidazol-1-yl)])) showed an EC50 of 5.16 µM.

`CCCC[C@@H]1NC(=O)[C@H](Cc2cncnc2)NC(=O)[C@H](C)N(C)C(=O)[C@H](Cc2ccccc2)OC(=O)C23CC(CNC(=O)[C@H](Cc4ccc(F)cc4)N(C)C(=O)[C@H](CCCC)NC(=O)[C@H](Cc4ccccc4F)NC1=O)(C2)C3` [compound 173, cyclo(FLac-NMeA-PyrimAla-Nle-Phe2F-Nle-NMePhe4F-amBCP)] (cyclo([NMeA][Ala(pyrimidin-5-yl)][Nle][Phe(2-F)][Nle][NMePhe(4-F)][X1][PhLac])) displayed an EC50 of 0.994 µM.

`CCCC[C@@H]1NC(=O)[C@H](Cc2cncnc2)NC(=O)[C@H](CO)N(C)C(=O)[C@H](Cc2ccccc2)OC(=O)C23CC(CNC(=O)[C@H](Cc4cccnc4)N(C)C(=O)[C@H](CCCC)NC(=O)[C@H](Cc4ccccc4F)NC1=O)(C2)C3` [compound 119, cyclo(FLac-NMeS-PyrimAla-Nle-Phe2F-Nle-NMe3Pal-amBCP)] (cyclo([NMe3Pal][X1][PhLac][NMeS][Ala(pyrimidin-5-yl)][Nle][Phe(2-F)][Nle])): the EC50 was more than 50.8 µM. For `CCCC[C@@H]1NC(=O)[C@H](Cc2cccnc2)NC(=O)[C@H](CCCNC(=N)N)NC(=O)[C@H](Cc2ccccc2)NC(=O)CSC[C@@](C)(C(N)=O)NC(=O)[C@H](Cc2ccccc2)N(C)C(=O)[C@H](CCCC)NC(=O)[C@H](Cc2ccccc2F)NC1=O` [compound 160, cyclo(F-R-3Pal-Nle-Phe2F-Nle-NMeF-aMeCl-ClAc)] ({CH2CO}-FR[3Pal][Nle][Phe(2-F)][Nle][NMeF][αMeC]-NH2; thioether N-8), the EC50 is more than 50.8 µM. Regarding `CCCC[C@@H]1NC(=O)[C@H](Cc2ccccc2F)NC(=O)C(CC2CC(F)(F)C2)NC(=O)[C@H](Cc2cncnc2)NC(=O)[C@H](C)N(C)C(=O)[C@H](Cc2ccccc2)OC(=O)C23CC(CNC(=O)[C@H](Cc4cccnc4)N(C)C1=O)(C2)C3` (single isomer, unassigned) [compound 122, cyclo(FLac-NMeA-PyrimAla-rF2Cba-Phe2F-Nle-NMe3Pal-amBCP)], the EC50 was more than 50.8 µM. As to `Cc1cccc(C[C@H]2C(=O)NCC34CC(C3)(C4)C(=O)O[C@@H](Cc3ccccc3)C(=O)N(C)[C@@H](C)C(=O)N[C@@H](Cc3cncnc3)C(=O)N[C@@H](CC3CC3)C(=O)N[C@@H](Cc3cnccc3F)C(=O)N[C@@H](CCC(C)C)C(=O)N2C)c1` [compound 278, cyclo(FLac-NMeA-PyrimAla-cPrA-3Pal6F-hL-NMePhe3Me-amBCP)] (cyclo([Ala(cPr)][X15][hLeu][NMePhe(3-Me)][X1][PhLac][NMeA][Ala(pyrimidin-5-yl)])), the midpoint of the response, the EC50, lay at 4 µM.

Molecule `CCCC[C@@H]1NC(=O)[C@H](Cc2cncnc2)NC(=O)[C@H](C)N(C)C(=O)[C@H](Cc2ccccc2)OC(=O)C23CC(CNC(=O)[C@H](Cc4ccc(OC)cc4)N(C)C(=O)[C@H](CCCC)NC(=O)[C@H](Cc4ccccc4F)NC1=O)(C2)C3` [compound 175, cyclo(FLac-NMeA-PyrimAla-Nle-Phe2F-Nle-NMeYOMe-amBCP)] (cyclo([NMeA][Ala(pyrimidin-5-yl)][Nle][Phe(2-F)][Nle][NMeY](Me)[X1][PhLac])) displayed an EC50 of 0.439 µM. In turn, `CCCCC[C@@H]1NC(=O)[C@H](Cc2ccoc2)NC(=O)[C@H](CC2CCC2)NC(=O)[C@H](Cc2cccnc2)NC(=O)[C@H](CCCNC(=N)N)NC(=O)[C@H](Cc2ccccc2)NC(=O)CSC[C@@](C)(C(N)=O)NC(=O)[C@H](Cc2ccccc2)N(C)C1=O` [compound 374, cyclo(F-R-3Pal-cBuA-Ala3Fur-Ahp-NMeF-aMeCl-ClAc)] ({CH2CO}-FR[3Pal][Cba][X47][Ahp(2)][NMeF][αMeC]-NH2; thioether N-8) gave an EC50 of more than 50.8 µM. Regarding `CCCC[C@@H]1NC(=O)[C@H](Cc2cccnc2)NC(=O)[C@H](CC)N(C)C(=O)[C@H](Cc2ccccc2)OC(=O)C23CC(CNC(=O)[C@H](Cc4cccnc4)N(C)C(=O)[C@H](CCCC)NC(=O)[C@H](Cc4ccccc4F)NC1=O)(C2)C3` [compound 404, cyclo(FLac-NMeAbu-3Pal-Nle-Phe2F-Nle-NMe3Pal-amBCP)] (cyclo([3Pal][Nle][Phe(2-F)][Nle][NMe3Pal][X1][PhLac][NMeAbu])), the EC50 was determined as 31 µM.

`CCCCC[C@@H]1NC(=O)[C@H](Cc2ccc(OC)cc2)NC(=O)[C@H](CC2CCC2)NC(=O)[C@H](Cc2cccnc2)NC(=O)[C@H](CCCNC(=N)N)NC(=O)[C@H](Cc2ccccc2)NC(=O)CSC[C@@](C)(C(N)=O)NC(=O)[C@H](Cc2cnco2)N(C)C1=O` [compound 379, cyclo(F-R-3Pal-cBuA-TyrOMe-Ahp-NMeAla5Oxa-aMeCl-ClAc)] ({CH2CO}-FR[3Pal][Cba]Y(Me)[Ahp(2)][X20][αMeC]-NH2; thioether N-8) registered an EC50 of more than 50.8 µM.
